Results reported in patent EP4621052A1, “IMMUNE CELL TARGETING PROBE, PRE-TARGETING RECOGNITION AND DRUG DELIVERY SYSTEM BASED ON PROBE, AND USE THEREOF” (Guangdong Keyangle Life Technology Co., Ltd., priority 2022, dated 2024).
One block for each molecule: values may come before it. Where no end group is shown, it is not given here.

Key:
peritoneal macrophages = assay: in vivo labeling of peritoneal macrophages by targeting polypeptide with pre-targeting binding handle; set-up: species or system Kunming mice; settings: 10 µM peptide premixed with Strep-PE, intraperitoneal injection, 4 h; F4/80-APC counterstain; flow cytometry
Procedure: • (1) In vivo labeling of peritoneal macrophages by targeting polypeptides connected with pre-targeting binding handles: In this example, the targeting polypeptides KS24 (amino acid sequence: […] (SEQ ID NO: 29)) and KS29 (amino acid sequence: […] (SEQ ID NO: 30)) were used. The pre-targeting binding handle was biotin. The biotinylation steps of the targeting polypeptides were as follows: the biotinylation of targeting polypeptides was carried out by adding biotinylated amino acids during peptide synthesis, so that the biotinylation sites can be controlled. Two biotinylated targeting polypeptides (bio-KS24 and bio-KS29) were respectively connected to phycoerythrin-labeled streptavidin (Strep-PE), where streptavidin served as a linker, and the phycoerythrin was connected through the specific binding of the linker to the pre-targeting binding handle (biotin-avidin system) to the targeting polypeptide for immune cell labeling and tracing. The mixtures were incubated together at room temperature for 1 h. In a 100 µL reaction system, the final concentration of the biotinylated targeting polypeptide was 10 µM, and 1 µL of Strep-PE was added. After the incubation, two groups of healthy female Kunming mice (3 mice in each group) were selected. […] After incubation, the cells were washed twice with 1× PBS and analyzed using flow cytometry. […]

[1] = test system: peripheral blood of Kunming mice; assay: labeling of peripheral blood with targeting polypeptide with pre-targeting binding handle, flow cytometry; type: cell-based; settings: 10 µM peptide; for staining of cell populations in peripheral blood: 4°C 30 min, Strep-PE, CD19 and CD5 antibodies; for identity of the labeled B lymphocyte population: CD19 and CD5 counterstain
Excerpt: (2) Labeling of peripheral blood with the targeting polypeptide connected with pre-targeting binding handle: Healthy Kunming mice were taken and killed by cervical dislocation, and their peripheral blood was collected using anticoagulant blood vessels.
KS24 and KS29 were biotinylated according to the method described in (1) to obtain targeting polypeptides bio-KS24 and bio-KS29 connected with pre-targeting binding handle. The targeting polypeptides bio-KS24 and bio-KS29 each connected with the pre-targeting binding handle were added to 50 µL of peripheral blood samples, respectively, to be diluted to 100 µL with 1×PBS so that the concentration of the targeting polypeptides bio-KS24 and bio-KS29 connected with the pre-targeting binding handle in the solution was 10 µM, and the mixture was incubated at 4°C for 30 min. After the incubation, red blood cells in the peripheral blood were lysed using a conventional red blood cell lysis reagent in the art according to the instructions, washed twice with 1×PBS, resuspended with 100 µL of 1×PBS, and 1 µL/tube of phycoerythrin-labeled Strep-PE, 0.5 µL/tube of anti-mouse CD19 Antibody, and 0.5 µL/tube of FITC anti-mouse CD5 Antibody were added, and incubated at room temperature for 1 h. After the incubation, the cells were washed twice with 1× PBS and analyzed by flow cytometry.

[2] = test system: peritoneal free macrophages; assay: pre-targeting delivery after intraperitoneal injection, free peritoneal cells, fluorescence microscopy; type: in vivo, Kunming mice; settings: peptide 10 µM intraperitoneal, Strep-PE intraperitoneal 3 h later, killed 1 h later; F4/80-APC counterstain
Procedure: (§1) The specific experimental steps are as follows: Biotinylated targeting polypeptides bio-KS24 and bio-KS29 (i.e., targeting polypeptides connected with the pre-targeting binding handles) were prepared according to the steps described in the above examples.
(§2) The targeting polypeptides (bio-KS24 and bio-KS29) connected with the pre-targeting binding handles were prepared, respectively, with a final concentration of 10 µM and a final volume of 100 µL. Then, the mixture was diluted with PBS to 4 times of the original volume (i.e., 100 µL of the mixed system was diluted to 400 µL), and then injected into Kunming mice intraperitoneally, with an injection volume of 400 µL per mouse. After the injection of the targeted polypeptide for 3 h, 5 µL Trep-PE was diluted into 100 µL of 1× PBS and intraperitoneally injected into mice. The mice were killed 1 h after the injection, and free peritoneal cells and mesentery were extracted and counterstained with F4/80-APC antibody. After incubation, the cells were washed twice with 1× PBS and observed under a fluorescence microscope.
(§3) Untreated healthy mice were used as controls.

[3] = test system: macrophages on the mesentery; assay: pre-targeting delivery after intraperitoneal injection, mesentery, fluorescence microscopy; type: in vivo, Kunming mice; settings: peptide 10 µM intraperitoneal, Strep-PE intraperitoneal 3 h later, killed 1 h later; F4/80-APC counterstain
Procedure: as §1, §2, §3

[4] = target: T1, Peptide segment KL19 (KEQPDPGAVAAAAILRAIL); assay: indirect ELISA, peptide as coating antigen
T1 construct: Synthetic peptide used as ELISA coating antigen; Derived from the C-terminal fragment of Triokinase/FMN cyclase, with an added N-terminal K
T1 peptide: KEQPDPGAVAAAAILRAIL

- identity of the labeled B lymphocyte population [1]: CD5^+ B lymphocytes
Molecule: bio-KS29: biotinylated targeting polypeptide KS29, KSSARLEQPDPGAVAAAAILRAILEVLQS (SEQ ID NO: 30) (also: biotinylated, site not given here)
- recognition of macrophages in peritoneal cells (peritoneal macrophages): can selectively recognize macrophages in peritoneal cells of mice
- staining of cell populations in peripheral blood [1]: can stain a subset of B lymphocyte population and granulocyte population
- pre-labeling of free peritoneal macrophages [2]: could pre-label macrophages
- pre-labeling of macrophages on the mesentery [3]: could pre-label macrophages on the mesentery

- identity of the labeled B lymphocyte population [1]: CD5^+ B lymphocytes
Molecule: bio-KS24: biotinylated targeting polypeptide KS24, KEQPDPGAVAAAAILRAILEVLQS (SEQ ID NO: 29) (also: biotinylated, site not given here)
- recognition of macrophages in peritoneal cells (peritoneal macrophages): can selectively recognize macrophages in peritoneal cells of mice
- staining of cell populations in peripheral blood [1]: can stain a subset of B lymphocyte population and granulocyte population
- pre-labeling of free peritoneal macrophages [2]: could pre-label macrophages
- pre-labeling of macrophages on the mesentery [3]: could pre-label macrophages on the mesentery

- binding result [4]: no binding
B1: KA-001 monoclonal antibody (antibody, mouse IgG1, kappa, V domains shown)
VH: DVKIVESGGGLVKLGGSLKLSCAASGFTFSRNYMSWVRQTPEKRLELVAGINNNGGSTYYPDTVKGRFTISRDNAKNTLYLQMSSLRSEDTAIYYCAKRGFITTVGAMDYWGQGISVTVSS
VL: DIQMTQTTFSLSASLGDRVTISCRASQDISNYLNWYQQIPDGTVKLLIYYTSRLHSGVPSRFSGSGSGTDYSLTISNLEQEDIATYFCQQVHTLPYTFGGGTKLEMKR
